Experimental data: US11058745B1, “Stable liquid pharmaceutical compositions of daptomycin” (JNF LLC., priority 2018, dated 2021)

Assay: Chemical stability of daptomycin formulations on storage (daptomycin peak purity, anhydrodaptomycin impurity)
Assay type: physicochemical
Details: with only propylene glycol, 2-8° C.
Experimental: For purposes of the present invention, “stable” or “substantially stable” with respect to liquid daptomycin compositions shall be understood to mean compositions having less than about 5% anhydrodaptomycin impurity compared to a reference standard and/or having a peak purity of at least about 95% after 1 month at room temperature or 12 months at refrigerated temperatures of from about 2 to about 8° C. Impurity and peak purity calculated based on integration of major impurity anhydrodaptomycin and daptomycin peaks only and minor impurities not accounted for calculations.
Note: Impurities presented here represent increase compared to standard injections. The peak at RRT of about 1.12 (Anhydrodaptomycin) is major impurity that increases over the time. The same impurity is also present in standard injections to the extent of 0.6 to 0.8%. Here onwards, impurity means it is Anhydrodaptomycin and peak purity refers to area percentage of Daptomycin, when only two peaks are integrated, Daptomycin and Anhydrodaptomycin.
Note: Impurities presented here represent increase compared to standard injections. The peak at RRT 1.12 (Anhydrodaptomycin) is major impurity that increases over the time. The same impurity is also present in standard injections to the extent of 0.6 to 0.8%.

stable up to (time): up to 1 month
Structure (SMILES): CCCCCCCCCC(=O)N[C@@H](Cc1c[nH]c2ccccc12)C(=O)N[C@H](CC(N)=O)C(=O)N[C@@H](CC(=O)O)C(=O)N[C@@H]1C(=O)NCC(=O)N[C@@H](CCCN)C(=O)N[C@@H](CC(=O)O)C(=O)N[C@H](C)C(=O)N[C@@H](CC(=O)O)C(=O)NCC(=O)N[C@H](CO)C(=O)N[C@@H]([C@H](C)CC(=O)O)C(=O)N[C@@H](CC(=O)c2ccccc2N)C(=O)O[C@@H]1C [Daptomycin]
